Data on 9 compounds can be found in ChEMBL document CHEMBL1135772, “Conformationally constrained nicotines: polycyclic, bridged, and spiro-annulated analogues as novel ligands for the nicotinic acetylcholine receptor” (J Med Chem, 2002).

The structures appear in SMILES notation.

Neuronal acetylcholine receptor; alpha4/beta2, sequence (P09483 whole entry): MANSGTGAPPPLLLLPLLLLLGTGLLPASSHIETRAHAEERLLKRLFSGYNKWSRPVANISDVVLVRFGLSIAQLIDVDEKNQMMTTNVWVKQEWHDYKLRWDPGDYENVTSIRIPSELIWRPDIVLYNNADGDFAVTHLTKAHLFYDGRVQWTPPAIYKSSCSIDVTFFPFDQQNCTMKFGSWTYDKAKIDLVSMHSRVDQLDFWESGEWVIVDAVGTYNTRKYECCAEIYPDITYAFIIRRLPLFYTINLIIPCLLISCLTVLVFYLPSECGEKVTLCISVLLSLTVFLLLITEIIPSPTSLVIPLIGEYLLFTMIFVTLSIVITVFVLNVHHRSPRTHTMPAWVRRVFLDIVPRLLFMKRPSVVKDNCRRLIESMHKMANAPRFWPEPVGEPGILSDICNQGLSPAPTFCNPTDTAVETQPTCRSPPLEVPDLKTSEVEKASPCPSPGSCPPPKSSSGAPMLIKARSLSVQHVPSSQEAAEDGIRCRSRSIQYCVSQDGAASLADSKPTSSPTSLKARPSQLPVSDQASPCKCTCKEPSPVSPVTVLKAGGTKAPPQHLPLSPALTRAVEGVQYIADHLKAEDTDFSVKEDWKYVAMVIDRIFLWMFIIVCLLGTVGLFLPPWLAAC
Neuronal acetylcholine receptor; alpha4/beta2, sequence (P12390 whole entry): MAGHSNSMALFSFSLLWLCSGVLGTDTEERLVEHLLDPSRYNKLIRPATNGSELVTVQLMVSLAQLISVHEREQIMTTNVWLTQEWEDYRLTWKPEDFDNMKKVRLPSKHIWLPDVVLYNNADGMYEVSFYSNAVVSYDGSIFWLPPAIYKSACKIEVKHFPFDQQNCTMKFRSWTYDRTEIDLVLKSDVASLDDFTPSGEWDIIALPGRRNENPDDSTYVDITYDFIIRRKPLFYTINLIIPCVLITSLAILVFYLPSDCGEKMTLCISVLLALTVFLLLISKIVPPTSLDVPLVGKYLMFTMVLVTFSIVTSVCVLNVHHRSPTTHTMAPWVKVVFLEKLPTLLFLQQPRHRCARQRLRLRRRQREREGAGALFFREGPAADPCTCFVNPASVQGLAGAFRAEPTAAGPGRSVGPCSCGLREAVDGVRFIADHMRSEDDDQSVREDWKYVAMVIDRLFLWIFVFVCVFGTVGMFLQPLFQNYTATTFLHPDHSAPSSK

This experiment has as its target Neuronal acetylcholine receptor; alpha4/beta2 (Rattus norvegicus, UniProt P09483+P12390). The experiment is described as follows: Displacement of [3H]cytisine from Nicotinic acetylcholine receptor alpha4-beta2 in rat forebrain.
For `c1cncc(C2C3CCN2CC3)c1` (stereo in doubt; 3 (+)), the inhibition constant Ki was determined as 2.32 nM.
As for `c1cc2c(cn1)[C@H]1N3CCC1(CC3)C2`, the figure is 962 nM; as for `c1cc2c(cn1)C1N3CCCC1(CC3)C2` (stereo in doubt; (-)4b), 1040 nM.
For `c1cc2c(cn1)C1N3CCCC1(CC3)C2` (stereo in doubt; (+)4b) the value was 318 nM; for `CN1CCC[C@]12CCc1ccncc12`, 4.79 nM.
For `c1cc2c(cn1)[C@]1(CCCN1)CC2` the value was 533 nM; for `CN1CCC[C@@]12CCc1ccncc12`, 148 nM.
The compound `c1cncc(C2C3CCN2CC3)c1` (single isomer, unassigned; (-)) returned an inhibition constant (Ki) of 1.89 nM.
For `c1cc2c(cn1)[C@@]1(CCCN1)CC2` the value was 53.1 nM.
